Laboratory results: patent US20090105200A1, “Combination therapy” (priority 2007, published 2009)

Experiments:
primary CLL cells = assay: Cell death by 7AAD staining/flow cytometry and Wright-Giemsa stained cytospin slides; type: cell-based, human; details: 24 hours; for toxicity to CLL cells (photomicrographs): individual treatment, 3 nM
NF-κB2 precursor p100 = assay: Immunoblot analysis of p100/p52; type: cell-based, human; details: bortezomib with romidepsin
Protocol: (§1) Methods. […] Immunoblot analysis (30 μg of protein per condition) was performed to detect cleavage of caspase-12 and PARP, levels of IκB c, phospho-IκBα, p65, p100/p52, as well as expression of NF-κB downstream anti-apoptotic proteins. Parallel studies were performed in two established CLL cell lines (JVM-3 and MEC-2, DSMZ).

Mcl-1 = assay: Immunoblot analysis of Mcl-1; type: cell-based, human
Protocol: as §1

[1] = system: dexamethasone-resistant (MM.1R) human myeloma cells; assay: Apoptosis by Annexin V staining and flow cytometry; type: cell-based; details: 24 hours; 1 nM romidepsin with 2 nM bortezomib
[2] = system: bortezomib-resistant cells (U266/PS-R); assay: Apoptosis by Annexin V-FITC staining and flow cytometry; type: cell-based, human; details: 48 hours; 2 nM romidepsin with 5-15 nM bortezomib
NF-κB = type: cell-based, human; details: romidepsin alone
Protocol: as §1

[3] = Phase I/II dose escalation trial: toxicity and maximum tolerated dose; type: in vivo, human; details: dose level 2; with bortezomib 1.3 mg/m^2 and dexamethasone 20 mg; 28-day cycle
Excerpt: The trial design is illustrated in FIG. 10.
Specifically, during phase I (accelerated dose escalation phase), an accelerated titration design was used to ascertain the MTD of romidepsin. For example, if no dose limiting toxicities (DLTs) and <2 patients have moderate toxicities in cycle 1 (C1), the next patient is entered at one level higher. According to National Cancer Institute Common Toxicity Criteria (NCI-CTC) (version 3), DLT is defined as platelets<25×10^9/L; Grade 4 neutropenia despite G-CSF support; Grade 3 or 4 nausea, emesis, or diarrhea despite treatment; any other Grade 3 or 4 non-haematological toxicity; or >4 week suspension of treatment due to toxicity. The accelerated phase ends when one patient has a DLT during C1 or two patients have “moderate” toxicity during first treatment cycles. Patients were entered in cohorts of three according to the standard dose escalation design. A maximum of six patients were treated at any dose level. MTD is defined as the highest dose level at which the incidence of DLT is less than 33%. […]

[4] = bortezomib 3 nM with romidepsin 3-5 nM, five patients

SMILES | toxicity to CLL cells (photomicrographs) (primary CLL cells) | processing of NF-κB2 precursor p100 into p52 (NF-κB2 precursor p100) | Mcl-1 level (Mcl-1; bortezomib alone) | effect on bortezomib lethality [1] | effect on bortezomib lethality [2] | primary CLL samples with additive lethality (primary CLL cells; [4]) | primary CLL samples with increased bortezomib lethality (primary CLL cells; [4]) | NF-κB activity (NF-κB) | bortezomib-induced Mcl-1 accumulation (Mcl-1; cells co-exposed to romidepsin) | maximum tolerated dose of romidepsin [3] [mg/m^2]
CC(C)C[C@H](NC(=O)[C@H](Cc1ccccc1)NC(=O)c1cnccn1)B(O)O [bortezomib, [(1R)-3-methyl-1-[[(2S)-1-oxo-3-phenyl-2-[(pyrazinylcarbonyl)amino]propyl]amino]butyl]boronic acid] | relatively non-toxic | blocked romidepsin-mediated processing of NF-κB2 precursor p100 into its active p52 form | induced accumulation of Mcl-1 | – | – | – | – | – | – | –
C/C=C1\NC(=O)[C@H]2CSSCC/C=C/[C@H](CC(=O)N[C@H](C(C)C)C(=O)N2)OC(=O)[C@H](C(C)C)NC1=O [romidepsin, (1S,4S,10S,16E,21R)-7-[(2Z)-ethylidene]-4,21-diisopropyl-2-oxa-12,13-dithia-5,8,20,23-tetraazabicyclo[8.7.6]tricos-16-ene-3,6,9,19,22-pentanone] | relatively non-toxic | – | – | potentiate bortezomib lethality | potentiates bortezomib lethality | additive lethality in one sample | dramatically increased bortezomib lethality in four out of five primary CLL samples | activated NF-κB activity | diminished | 10
